Data: ChEMBL document CHEMBL3769335, “Non-symmetrical furan-amidines as novel leads for the treatment of cancer and malaria” (Eur J Med Chem, 2016)
Active and inactive are the calls of the source. The calls are words filed in the database; no cut-off is given here.

What was measured:
[1] = Drug uptake in Plasmodium falciparum 3D7 nucleus; type: ADME
MDA-MB-231 [2] = assay: Cytotoxicity against human MDA-MB-231 cells after 96 hrs by MTT assay; type: functional, cell-based; conditions: MDA-MB-231, 96 h
Calf thymus DNA = conditions: Bos taurus
Description: Binding affinity to calf thymus DNA assessed as change in melting temperature by UV-visible spectrophometry

MDA-MB-468 [3] = assay: Cytotoxicity against human MDA-MB-468 cells after 96 hrs by MTT assay; type: functional, cell-based; conditions: MDA-MB-468, 96 h
T47D [4] = assay: Cytotoxicity against human T47D cells after 96 hrs by MTT assay; type: functional, cell-based
[5] = target: T1, Ribosyldihydronicotinamide dehydrogenase [quinone] (Homo sapiens, UniProt P16083); assay: Inhibition of human recombinant NQO2 using DCPIPas substrate and NRH as cofactor measured for 1 min by spectrophotometry in the absence of BSA
T1 sequence (P16083 whole entry): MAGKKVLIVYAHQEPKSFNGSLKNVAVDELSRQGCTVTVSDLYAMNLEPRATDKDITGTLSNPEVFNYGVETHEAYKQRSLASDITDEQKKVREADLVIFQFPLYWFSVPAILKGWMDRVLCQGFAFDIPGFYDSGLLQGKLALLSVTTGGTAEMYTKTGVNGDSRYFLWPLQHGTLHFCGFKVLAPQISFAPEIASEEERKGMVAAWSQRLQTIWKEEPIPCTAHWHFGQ

MCF7 [6] = assay: Cytotoxicity against human MCF7 cells after 96 hrs by MTT assay; type: functional, cell-based; conditions: MCF7, 96 h
Plasmodium falciparum = assay: Antimalarial activity against Plasmodium falciparum 3D7 infected in erythrocyte assessed as growth inhibition after 4 days by flow cytometry; type: functional, organism-based; conditions: 3D7, 96 h
[7] = target: T1, Ribosyldihydronicotinamide dehydrogenase [quinone]; assay: Inhibition of human recombinant NQO2 using DCPIPas substrate and NRH as cofactor measured for 1 min by spectrophotometry in the prsence of BSA
[8] = target: T1, Ribosyldihydronicotinamide dehydrogenase [quinone]; assay: Inhibition of human recombinant NQO2 using DCPIP as substrate and NRH as cofactor in absence of BSA
[9] = target: NAD(P)H dehydrogenase [quinone] 1 (Homo sapiens) (UniProt P15559); assay: Inhibition of human recombinant NQO1 using NADH as substrate at 10 uM measured for 1 min by spectrophotometry in presence of BSA
Sequence of NAD(P)H dehydrogenase [quinone] 1 (Homo sapiens) (P15559 whole entry): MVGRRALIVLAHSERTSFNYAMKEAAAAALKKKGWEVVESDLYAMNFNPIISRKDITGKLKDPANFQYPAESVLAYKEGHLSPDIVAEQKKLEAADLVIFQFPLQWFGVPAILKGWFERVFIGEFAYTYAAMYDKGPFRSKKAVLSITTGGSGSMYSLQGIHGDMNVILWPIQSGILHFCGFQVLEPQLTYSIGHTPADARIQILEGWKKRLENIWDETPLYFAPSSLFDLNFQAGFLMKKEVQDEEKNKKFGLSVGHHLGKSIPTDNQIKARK

MDA-MB-231 [10] = assay: Cytotoxicity against human MDA-MB-231 cells at 10 uM after 96 hrs by MTT assay; type: functional, cell-based
[11] = target: NAD(P)H dehydrogenase [quinone] 1 (Homo sapiens) (UniProt P15559); assay: Inhibition of human recombinant NQO1 using NADH as substrate at 10 uM measured for 1 min by spectrophotometry in absence of BSA
MDA-MB-468 [12] = assay: Cytotoxicity against human MDA-MB-468 cells at 10 uM after 96 hrs by MTT assay; type: functional, cell-based
MCF7 [13] = assay: Cytotoxicity against human MCF7 cells at 10 uM after 96 hrs by MTT assay; type: functional, cell-based
T47D [14] = assay: Cytotoxicity against human T47D cells at 10 uM after 96 hrs by MTT assay; type: functional, cell-based

CC(=O)O.Cc1ccc(-c2ccc(-c3ccc(C(=N)N)cc3)o2)cc1
Drug uptake [1]: Not Active | IC50 (MDA-MB-231 [2]): 3.4 µM | ΔTm (Calf thymus DNA): 2.8 °C | IC50 (MDA-MB-468 [3]): 3.7 µM | IC50 (T47D [4]): 3.1 µM | IC50 [5]: 0.072 µM | IC50 (MCF7 [6]): 4.8 µM | IC50 (Plasmodium falciparum): 0.0575 µM | IC50 [7]: 0.11 µM

N=C(N)c1ccc(-c2ccc(-c3cccc(F)c3)o2)cc1
IC50 (MDA-MB-231 [2]): 2 µM | ΔTm (Calf thymus DNA): 3.2 °C | IC50 (MDA-MB-468 [3]): 2.4 µM | IC50 (T47D [4]): 2.8 µM | IC50 [5]: 0.098 µM | IC50 (MCF7 [6]): 2.6 µM | IC50 [7]: 0.111 µM

Cc1c(-c2ccc(C(=N)N)cc2)oc(-c2ccc(C(=N)N)cc2)c1C
IC50 [8]: 0.05 µM

N=C(N)c1ccc(-c2ccc(-c3ccc([N+](=O)[O-])cc3)o2)cc1
IC50 (MDA-MB-231 [2]): 3.1 µM | IC50 (MDA-MB-468 [3]): 3.4 µM | IC50 (T47D [4]): 3.8 µM | IC50 [5]: 0.0152 µM | IC50 (MCF7 [6]): 3.2 µM | IC50 [7]: 0.024 µM

CC(C)(C)c1ccc(-c2ccc(-c3ccc(C(=N)N)cc3)o2)cc1
IC50 (MDA-MB-231 [2]): 3.2 µM | IC50 (MDA-MB-468 [3]): 3.8 µM | IC50 (T47D [4]): 3.6 µM | IC50 [5]: 0.51 µM | IC50 (MCF7 [6]): 3.7 µM | IC50 [7]: 0.712 µM

CC(=O)O.CC(=O)O.N=C(N)c1ccc(-c2ccc(-c3ccc(C(=N)N)cc3)o2)cc1
IC50 [8]: 0.63 µM | Drug uptake [1]: Active | IC50 (MDA-MB-231 [2]): 12.5 µM | ΔTm (Calf thymus DNA): 20 °C | IC50 (MDA-MB-468 [3]): 14 µM | IC50 (T47D [4]): 12.8 µM | IC50 [5]: 0.035 µM | IC50 (MCF7 [6]): 13.6 µM | IC50 [7]: 0.072 µM

N=C(N)c1cccc(-c2ccc(-c3ccccc3)o2)c1
inhibition [9]: inactive | Activity (MDA-MB-231 [10]): inactive | inhibition [11]: inactive | Activity (MDA-MB-468 [12]): inactive | Activity (MCF7 [13]): inactive | Activity (T47D [14]): inactive

N=C(N)c1ccc(-c2ccc(-c3ccc(Br)cc3)o2)cc1
IC50 (MDA-MB-231 [2]): 2.7 µM | ΔTm (Calf thymus DNA): 4.4 °C | IC50 (MDA-MB-468 [3]): 2.5 µM | IC50 (T47D [4]): 2.4 µM | IC50 [5]: 0.027 µM | IC50 (MCF7 [6]): 2.6 µM | IC50 [7]: 0.185 µM

CCc1ccc(-c2ccc(-c3ccc(C(=N)N)cc3)o2)cc1
IC50 (MDA-MB-231 [2]): 3.4 µM | IC50 (MDA-MB-468 [3]): 3.3 µM | IC50 (T47D [4]): 3 µM | IC50 [5]: 0.202 µM | IC50 (MCF7 [6]): 3.2 µM | IC50 [7]: 0.312 µM

N=C(N)c1ccc(-c2ccc(-c3cccc([N+](=O)[O-])c3)o2)cc1
IC50 (MDA-MB-231 [2]): 2.9 µM | IC50 (MDA-MB-468 [3]): 3.3 µM | IC50 (T47D [4]): 3.3 µM | IC50 [5]: 0.0145 µM | IC50 (MCF7 [6]): 3 µM | IC50 [7]: 0.028 µM

N=C(N)c1ccc(-c2ccc(-c3ccccc3)[nH]2)cc1
IC50 (MDA-MB-231 [2]): 3.8 µM | IC50 (MDA-MB-468 [3]): 3.6 µM | IC50 (T47D [4]): 3.4 µM | IC50 [5]: 0.332 µM | IC50 (MCF7 [6]): 3.2 µM | IC50 [7]: 0.832 µM

COc1cccc2c1C(=O)c1c(O)c3c(c(O)c1C2=O)C[C@@](O)(C(=O)CO)C[C@@H]3O[C@H]1C[C@H](N)[C@H](O)[C@H](C)O1
ΔTm (Calf thymus DNA): 20.5 °C

N=C(N)c1ccc(-c2ccc(-c3ccccc3)o2)cc1
IC50 [8]: 0.14 µM | IC50 (MDA-MB-231 [2]): 2 µM | ΔTm (Calf thymus DNA): 1.9 °C | IC50 (MDA-MB-468 [3]): 2.7 µM | IC50 (T47D [4]): 2.8 µM | IC50 [5]: 0.068 µM | IC50 (MCF7 [6]): 2.4 µM | IC50 [7]: 0.139 µM

CC(=O)O.COc1ccc(-c2ccc(-c3ccc(C(=N)N)cc3)o2)cc1
Drug uptake [1]: Not Active | IC50 (MDA-MB-231 [2]): 2.5 µM | ΔTm (Calf thymus DNA): 2 °C | IC50 (MDA-MB-468 [3]): 2.2 µM | IC50 (T47D [4]): 3 µM | IC50 [5]: 0.107 µM | IC50 (MCF7 [6]): 2.8 µM | IC50 (Plasmodium falciparum): 0.139 µM | IC50 [7]: 0.141 µM

CC(=O)O.N=C(N)c1ccc(-c2ccc(-c3ccc(F)cc3)o2)cc1
Drug uptake [1]: Not Active | IC50 (MDA-MB-231 [2]): 3.2 µM | ΔTm (Calf thymus DNA): 3.2 °C | IC50 (MDA-MB-468 [3]): 3.8 µM | IC50 (T47D [4]): 3.6 µM | IC50 [5]: 0.505 µM | IC50 (MCF7 [6]): 3.7 µM | IC50 (Plasmodium falciparum): 0.0096 µM | IC50 [7]: 0.836 µM

Cn1c(-c2ccccc2)ccc1-c1ccc(C(=N)N)cc1
IC50 (MDA-MB-231 [2]): 2.6 µM | ΔTm (Calf thymus DNA): 0.9 °C | IC50 (MDA-MB-468 [3]): 3.8 µM | IC50 (T47D [4]): 2.1 µM | IC50 [5]: 0.41 µM | IC50 (MCF7 [6]): 2.7 µM | IC50 [7]: 0.943 µM

Oc1ccc(/C=C/c2cc(O)cc(O)c2)cc1 [RESVERATROL]
IC50 (MDA-MB-231 [2]): 57 µM | IC50 (MDA-MB-468 [3]): 58 µM | IC50 (T47D [4]): 59 µM | IC50 (MCF7 [6]): 62 µM
